In one test the test system is MM-1 cells. Description: MTT assay of cell growth and survival, MM-1 cells. Type of test: cell-based. The protocol: (§1) All compounds are tested for purity (HPLC, NMR) and the calculated molecular weight is used to make up a 10 mM stock solution of each compound (in 100% dimethylsulfoxide or 50% dimethylsulfoxide:50% polyethylene glycol 300). Compounds are diluted into cell culture media consisting of RPMI 1640 with 10% fetal bovine serum to a final starting concentration of 10 μM. [Highest final DMSO content=0.1%.]. Tumor cells (20,000 for non-adherent cells; 5,000 for adherent cells) are plated into individual wells of a 96-well culture plate in 0.1 ml of culture media. Diluted compounds are added to individual wells containing pre-plated cells (final volume 0.2 ml) and incubated at 37° C. for 24 to 72 h. Wells receiving vehicle alone acted as a control.
(§2) MTT (viability) assay. MTT reagent (20 μl of 5 mg/ml stock solution, Sigma) is added to the cells and the plates are incubated at 37° C. for another 2 h. Cells are lysed by adding 100 μl of lysis buffer (20% SDS in 50% N,N-dimethylformamide (Sigma) adjusted to pH 4.7 by 80% acetic acid and 1 M HCl such that the final concentration of acetic acid is 2.5% and HCl is 2.5%) into each well and incubated for 6 h. The OD570 of each sample is determined by using a SPECTRA MAX M2 plate reader (Molecular Devices). The OD in control and treated wells is used as an estimate of the effect of compounds on cell growth and survival.
Cell lines. […] A375 melanoma cells were grown and maintained in the same media. Ba/F3 parental cells were grown in RPMI 1640 containing 10% heat inactivated fetal bovine serum and 2 mM glutamine supplemented with IL-3 (1 ng/ml) while Ba/F3 cells stably expressing Bcr/Abl or the T315I mutant of Bcr/Abl were grown in RPMI 1640 containing 10% heat inactivated fetal bovine serum and 2 mM glutamine in the absence of IL-3. Normal human dermal fibroblasts (NHDF) were obtained from Cambrex (Walkersville, Md.) and grown in specially formulated media (obtained through Cambrex) with 20% fetal calf serum.
IC50 determinations. The anti-tumor activity of certain compounds of the present invention against MM-1 cell lines was investigated and the IC50 values calculated (FIGS. 33A-F). In a typical experiment, MM-1 cell lines were incubated with a range of compound concentrations for 72 h to determine the concentration required to inhibit cell growth or induce apoptosis by 50% (IC50). MTT assays as described above were used to conduct this analysis.

For the next test, the system named is K562 cells. Description: MTT assay of cell growth and survival, K562 cells. Type of test: cell-based, human. The note with it: FIG. 21; anti-tumor activity. The protocol: as §1, §2
Cell lines. […]

The target of a further test is T1, c-myc (Homo sapiens, UniProt P01106).
T1 construct: endogenous in cells; host or cells: MM-1 cells
As to the kind of experiment: c-myc protein immunoblot in MM-1 cells. The note with it: for Effect of inhibitor pretreatment on Degrasyn-mediated c-myc protein reduction: inhibitor 2 h, then 5 μM Degrasyn 2 h. Type of test: cell-based. The protocol: Top: MM-1 cells were incubated with 5 μM Degrasyn for the interval noted before cell lysates were prepared and subjected to immunoblotting for c-myc and actin as a protein loading control.
Middle: MM-1 cells were treated with the indicated concentration of Degrasyn for 1 h before lysates were immunoblotted for c-myc and actin.
Bottom: MM-1 cells were treated as indicated before extraction of total RNA (TRIzol). RNA was resolved by agarose electrophoresis, transferred to a membrane and hybridized with a c-myc probe to determine the level of c-myc RNA in each sample. The ethidium bromide stained gel was photographed and 28S RNA content was detected as a measure of RNA content in each lane.
MM-1 cells were pretreated with protease/proteosome inhibitors (LLnL; LLnM; E-64d; MG132; PS341; Chloroquine; Ammonium Chloride; Cycloheximide) for 2 h before the addition of 5 μM Degrasyn or vehicle alone (DMSO as indicated) for an additional 2 h. Cell lysates were prepared and equal protein aliquots were subjected to immunoblotting for c-myc, Max (a c-myc binding partner) or actin as a protein loading control.
Pictured: MM-1 cells were treated with biotinylated Degrasyn (Bio-Deg) or Degrasyn (at the indicated concentration) for 1 h before analyzing effects on c-myc as described in FIG. 15.
(§3) Western Blot analysis. Cells were harvested, washed twice in cold 1×PBS and lysed in modified RIPA lysis buffer (150 mM NaCl, 1% NP-40, 0.5% Na-deoxycholate [DOC], 0.1% Na-dodecyl sulfate [SDS], 50 mM Tris-HCl (pH 7.5), 1 mM EDTA, 1 mM NaF, 2 mM Na-vanadate, with protease inhibitors (1 mM PMSF, 1 mM benzamidine, 10 μg/ml aprotinin, 10 μg/ml leupeptin) on ice for 30 min. The lysed cells were centrifuged at 13,000 rpm for 30 min and the supernatant collected. The protein concentration of the cell lysate was determined by the Bradford Protein Assay. Fifty to 60 μg of protein were resolved in a 10% SDS-PAGE, and transferred to a PVDF membrane. Western blotting was performed using specific primary antibodies Peroxidase-conjugated affiniPure anti-Mouse Anti-Rabbit secondary antibodies (Jackson Immunoresearch Laboratories, West Grove, Pa.). The proteins were visualized with ECL Plus reagents (Amersham Biosciences).
(In general: Immunoblotting shows a protein as a band on a membrane.)

The target in another test is T2, nucleophosmin (NPM) (Homo sapiens, UniProt P06748).
T2 construct: endogenous in cells; host or cells: MM-1 and K562 cell lysates
Description: Affinity recovery of Degrasyn interactive proteins with streptavidin beads. Type of test: binding. To be noted: MM-1 or K562 cell lysates. The protocol: Biotinylated-Degrasyn (10 μM) was incubated with lysates from MM-1 cells (10 mg total protein) and interactive proteins were assessed by affinity recovery using Streptavidin-conjugated beads to bind biotinylated-Degrasyn. Free Degrasyn (10 μM) was incubated with biotinylated-Degrasyn in a parallel experiment to assist in identifying specific protein:Degrasyn interactions. Affinity complexes were washed and Streptavidin-Bio-Deg interaction proteins were assessed by disrupting protein complexes with SDS-sample buffer and resolving proteins by SDS-PAGE. The resolved proteins were detected by silver-staining the gel. Protein bands present in the biotinylated-Degrasyn sample that were absent in samples co-incubated with free Degrasyn were identified and cut from the gel. A 38 kDa protein band was prominent in this assessment and was subjected to in gel trypsinization and identification of HPLC resolved tryptic peptides by tandem mass spectroscopy analysis (David Hawke, Department of Molecular Pathology, M.D. Anderson Cancer Center). This analysis identified nucleophosmin (NPM) as a Degrasyn interactive protein.
To further assess the interaction between NPM and Degrasyn, biotinylated-Degrasyn/streptavidin beads were incubated with MM-1 (left) or K562 (right) cell lysates. In parallel, lysates were co-incubated with free Degrasyn to determine the specificity of the interaction with NPM. […]

Test [1] concerns p70 and p55 tyrosine phosphorylation. As to the kind of experiment: Phosphotyrosine (4G10) immunoblot in B-cell malignancy cell lines. Type of test: cell-based. To be noted: 2 h; MM-1, LP or Mino cells. The protocol: MM-1 cells were pretreated with Degrasyn (at the concentration indicated) for 2 h before the addition of IL-6 for 15 min (as noted). Total cell lysates were prepared and equal protein aliquots were resolved by SDS-PAGE and immunoblotted for phosphotyrosine (4G10).
MM-1 and LP (lymphoma) cells were treated with Degrasyn (at the concentration indicated) for 2 h before cell lysates were prepared and equal protein aliquots were resolved by SDS-PAGE and immunoblotted for phosphotyrosine (4G10).
MM-1 and Mino (Mantle cell lymphoma) cells were treated with Degrasyns with different levels of anti-tumor efficacy (at the concentration indicated) for 2 h before cell lysates were prepared and equal protein aliquots were resolved by SDS-PAGE and immunoblotted for phosphotyrosine (4G10).
MM-1 cells were treated as indicated before analysis of cellular tyrosine phosphorylation by immunoblotting. Both p70 and p55 were tyrosine phosphorylated after 15 min of Degrasyn treatment which peaks in intensity after 1 h and remains higher than control levels after 4 h. These early changes may underlie or be a marker of Degrasyn activity in B-cell malignancies.
as §3

pIC50: −log10 of the molar value. Where a SMILES comes first, the peptide text is derived from it. The star is where a group is joined. Cbz = O=C(OCc1ccccc1)*

T1 sequence (P01106 16-454 limits assumed): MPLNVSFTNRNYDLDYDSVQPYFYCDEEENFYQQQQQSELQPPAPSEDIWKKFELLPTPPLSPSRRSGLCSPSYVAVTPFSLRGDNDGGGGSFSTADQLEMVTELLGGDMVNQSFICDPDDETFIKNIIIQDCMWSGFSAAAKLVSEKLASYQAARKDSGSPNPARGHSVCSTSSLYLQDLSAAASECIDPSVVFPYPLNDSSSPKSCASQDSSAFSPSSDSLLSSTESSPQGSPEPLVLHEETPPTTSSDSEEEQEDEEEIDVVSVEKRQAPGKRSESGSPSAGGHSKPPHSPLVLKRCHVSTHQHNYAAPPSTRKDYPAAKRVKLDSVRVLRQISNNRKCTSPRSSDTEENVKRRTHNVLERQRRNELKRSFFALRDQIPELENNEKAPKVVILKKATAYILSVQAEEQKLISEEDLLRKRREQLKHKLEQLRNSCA
T2 sequence (P06748 whole entry): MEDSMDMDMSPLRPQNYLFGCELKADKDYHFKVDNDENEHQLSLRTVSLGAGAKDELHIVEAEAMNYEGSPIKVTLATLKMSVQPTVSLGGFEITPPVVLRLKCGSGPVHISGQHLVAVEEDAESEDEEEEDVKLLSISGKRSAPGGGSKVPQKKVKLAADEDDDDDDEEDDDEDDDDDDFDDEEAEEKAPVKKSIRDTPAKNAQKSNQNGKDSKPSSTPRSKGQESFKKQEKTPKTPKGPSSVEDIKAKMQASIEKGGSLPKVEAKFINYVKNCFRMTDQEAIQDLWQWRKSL

For “2-Propenamide, 2-cyano-3-(3-bromo 2-pyridinyl)-N-(2-phenyl-2-ethylene)-1-biotinyl ester-(E) [Bio-Degrasyn]”, the pIC50 in the test with MM-1 cells (FIG. 21, anti-tumor activity, read-out: IC50 for MM-1 cells) was 5.42; in the test on K562 cells it was 5.25. In the test on MM-1 cells (MM-1 and K562 cells, relative to Degrasyn), the “Reduction of anti-tumor activity by biotinylation” value was roughly 2 fold. At c-myc (FIG. 21, 1 h), the c-myc protein levels entry is “reduced c-myc protein levels”. Also, the “Interaction with NPM” value on nucleophosmin (NPM) is listed as “recovered NPM from cell lysates”.

Regarding `N#C/C(=C\c1cccc(Br)n1)C(=O)NC(c1ccccc1)C1CC1` (stereo not drawn) [BDT-16], the “Anti-tumor activity relative to WP1130” value in the test with MM-1 cells (FIG. 28) is listed as “greater anti-tumor activity than WP1130”. The “Tyrosine phosphorylated protein species (~70 kDa, ~55 kDa)” value in test [1] is “more potently stimulates tyrosine phosphorylation”.

On to `CC(C)C[C@@H](C=O)NC(=O)[C@H](CC(C)C)NC(=O)[C@H](CC(C)C)NC(=O)OCc1ccccc1` [MG132, reference compound] (Cbz-Leu-Leu-Leu-aldehyde), for which, on c-myc, the “Effect of inhibitor pretreatment on Degrasyn-mediated c-myc protein reduction” value is “block Degrasyn-mediated c-myc protein reduction”.

With `CC(C)C[C@H](NC(=O)[C@H](Cc1ccccc1)NC(=O)c1cnccn1)B(O)O` [PS341, reference compound], the “Effect of inhibitor pretreatment on Degrasyn-mediated c-myc protein reduction” value on c-myc is “block Degrasyn-mediated c-myc protein reduction”.

Broadly, the pIC50 is the negative decadic logarithm of the IC50, by convention in mol/L.

Source of the values: patent US20100292229A1, “TRYPHOSTIN-ANALOGS FOR THE TREATMENT OF CELL PROLIFERATIVE DISEASES” (The Board of Regents of the University of Texas System, priority 2006, published 2010).
